Here are results for 38 compounds from patent US8604190B2, “Hetero isonipecotic modulators of vanilloid VR1 receptor” (Janssen Pharmaceutica NV, priority 2004, dated 2013).

This assay addresses T1, human VR1 (Homo sapiens, UniProt Q8NER1).
T1 construct: expressed in transfected cells; host or cells: A431 cells
The assay is described as follows: Human VR1 functional assay (FLIPR, intracellular Ca++). The class given is cell-based. As to conditions: A431 cells expressing human VR1, Ca++-sensitive dye, dose-response. How it is done:
The compounds of the invention were tested using a high throughput VR-1 FLIPR assay.
Human VR1 Functional Assay
The functional activity of the test compounds was determined by measuring changes in intracellular calcium concentration using a Ca^++-sensitive fluorescent dye and FLIPR™ technology. Increases in Ca^++ concentration were readily detected upon challenge with resiniferatoxin (RTX). A431 cells expressing human VR1 were seeded on polystyrene 384-well back walled clear bottom assay plates coated with collagen and incubated for 3-4 hours at 37° C. with 5% CO2 in DMEM. Plates were loaded with […] of 2× Dye Solution, incubated for 1-1.5 hours and subsequently tested for agonist-induced increases in intracellular Ca^2+ levels using FLIPR™ technology. Cells were challenged with test compounds (at varying concentrations) and intracellular Ca^++ was measured prior to the addition of resiniferatoxin to all wells to elicit ˜80% maximal response. EC50 or IC50 values were determined from dose-response studies.

T1 sequence (Q8NER1 whole entry): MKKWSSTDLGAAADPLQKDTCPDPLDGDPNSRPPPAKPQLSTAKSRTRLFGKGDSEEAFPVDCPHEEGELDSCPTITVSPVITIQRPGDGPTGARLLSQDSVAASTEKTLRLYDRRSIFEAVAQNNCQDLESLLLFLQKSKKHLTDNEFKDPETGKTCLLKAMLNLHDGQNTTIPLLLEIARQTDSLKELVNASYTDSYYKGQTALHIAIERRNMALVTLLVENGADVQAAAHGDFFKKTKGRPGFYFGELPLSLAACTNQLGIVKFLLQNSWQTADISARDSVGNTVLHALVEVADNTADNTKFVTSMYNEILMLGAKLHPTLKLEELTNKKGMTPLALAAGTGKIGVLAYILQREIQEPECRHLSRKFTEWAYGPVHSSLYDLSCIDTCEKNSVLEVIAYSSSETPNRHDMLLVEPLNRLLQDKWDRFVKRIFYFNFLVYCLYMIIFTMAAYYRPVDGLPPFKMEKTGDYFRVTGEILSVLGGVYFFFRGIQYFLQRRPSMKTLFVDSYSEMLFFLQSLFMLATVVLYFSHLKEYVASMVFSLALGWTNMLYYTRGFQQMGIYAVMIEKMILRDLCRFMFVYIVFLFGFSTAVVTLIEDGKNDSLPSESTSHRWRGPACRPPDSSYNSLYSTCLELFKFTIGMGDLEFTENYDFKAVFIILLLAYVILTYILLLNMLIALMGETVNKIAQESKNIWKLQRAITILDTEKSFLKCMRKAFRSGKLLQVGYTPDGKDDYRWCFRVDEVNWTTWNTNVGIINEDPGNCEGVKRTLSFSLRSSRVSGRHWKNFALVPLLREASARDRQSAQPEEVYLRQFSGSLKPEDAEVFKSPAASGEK

One may read the EC50 as the midpoint of the concentration-response curve. Compound `Cc1ccccc1N1CCC(C(=O)N2CCSCC2)CC1` [Compound 1, (1-o-Tolyl-piperidin-4-yl)-thiomorpholin-4-yl-methanone] showed a half-maximal effective concentration (EC50) of 230 nM.

`Cc1cccc(N2CCC(C(=O)N3CCC(O)CC3)CC2)c1C` [Compound 2, [1-(2,3-Dimethyl-phenyl)-piperidin-4-yl]-(4-hydroxy-piperidin-1-yl)-methanone] returned an EC50 of 240 nM. In the case of `O=C(C1CCN(c2cccc(-c3ccccc3)c2)CC1)N1CCOCC1` [Compound 3, (1-Biphenyl-3-yl-piperidin-4-yl)-morpholin-4-yl-methanone], the response was half-maximal at 270 nM (EC50).

As for `Cc1ccc(N2CCC(C(=O)N3CCSCC3)CC2)cc1F` [Compound 4, [1-(3-Fluoro-4-methyl-phenyl)-piperidin-4-yl]-thiomorpholin-4-yl-methanone], the EC50 came to 270 nM. `O=C(C1CCN(c2cccc(C(F)(F)F)c2)CC1)N1CCOCC1` [Compound 5, [1-(3-Trifluoromethyl-phenyl)-piperidin-4-yl]-morpholin-4-yl-methanone] gave an EC50 of 330 nM. Consider `Cc1ccc(N2CCC(C(=O)N3CCSCC3)CC2)cc1C` [Compound 6, [1-(3,4-Dimethyl-phenyl)-piperidin-4-yl]-thiomorpholin-4-yl-methanone], for which the EC50 was found to be 340 nM.

In the case of `Cc1cccc(N2CCC(C(=O)N3CCSCC3)CC2)c1C` [Compound 7], it took 760 nM to reach a half-maximal effect (EC50). In turn, `Cc1ccc(N2CCC(C(=O)N3CCC(O)CC3)CC2)cc1C` [Compound 8] came in with an EC50 of 910 nM. `Cc1ccc(N2CCC(C(=O)N3CCCCC3)CC2)cc1C` [Compound 9] showed a concentration giving a half-maximal response (EC50) of 1040 nM. In turn, `Cc1ccc(N2CCC(C(=O)N3CCCCC3)CC2)cc1F` [Compound 10] showed a 50% effective concentration (EC50) of 1300 nM. `Cc1ccccc1N1CCC(C(=O)N2CCC(O)CC2)CC1` [Compound 11]: the EC50 is 1420 nM. Compound `Cc1ccc(N2CCC(C(=O)N3CCOCC3)CC2)cc1C` [Compound 12] yielded a half-maximal effective concentration (EC50) of 1500 nM. On to `Cc1ccccc1N1CCC(C(=O)N2CCOCC2)CC1` [Compound 13], for which the EC50 came out at 1590 nM. For `Cc1cccc(N2CCC(C(=O)N3CCCCC3)CC2)c1C` [Compound 14], the 50% effective concentration (EC50) stood at 1640 nM. The value for `O=C(C1CCN(c2cc(F)cc(F)c2)CC1)N1CCOCC1` [Compound 15] was 1850 nM; that for `Cc1cccc(N2CCC(C(=O)N3CCSC3)CC2)c1C` [Compound 16] was 1890 nM; that for `O=C(C1CCN(c2cccc3ccccc23)CC1)N1CCCCC1` [Compound 17] was 1910 nM. `O=C(C1CCN(c2cc(F)cc(F)c2)CC1)N1CCSCC1` [Compound 18] came in with an EC50 of 1970 nM. As to `Cc1ccc(N2CCC(C(=O)N3CCOCC3)CC2)cc1F` [Compound 19], a half-maximal effect (EC50) was put at 2000 nM. `O=C(C1CCN(c2cc(F)cc(F)c2)CC1)N1CCCCC1` [Compound 20] gave an EC50 of 2050 nM.

`O=C(C1CCN(c2cccc(-c3ccccc3)c2)CC1)N1CCSCC1` [Compound 21] had an EC50 of 2200 nM. In the case of `Cc1ccc(N2CCC(C(=O)N3CCC(O)CC3)CC2)cc1F` [Compound 22], the EC50 stood at 2300 nM.

Consider `O=C(C1CCN(c2cc(F)cc(F)c2)CC1)N1CCC(O)CC1` [Compound 23], for which the half-maximal effective concentration (EC50) amounted to 2800 nM. `O=C(C1CCN(c2cccc3ccccc23)CC1)N1CCSC1` [Compound 24]: the 50% effective concentration (EC50) amounted to 3100 nM. The value for `Cc1ccccc1N1CCC(C(=O)N2CCCCCC2)CC1` [Compound 25] was 3200 nM. The compound `Cc1ccccc1N1CCC(C(=O)N2CCCCC2)CC1` [Compound 26] gave a 50% effective concentration (EC50) of 3260 nM. Compound `COc1cccc(N2CCC(C(=O)N3CCOCC3)CC2)c1` [Compound 27] gave an EC50 of 3530 nM. Consider `O=C(C1CCN(c2cccc(C(F)(F)F)c2)CC1)N1CCCCC1` [Compound 28], for which a half-maximal effect (EC50) was put at 3700 nM. The value for `Cc1cccc(N2CCC(C(=O)N3CCCCC3)CC2)c1` [Compound 29] was 3800 nM; that for `CC(=O)N1CCN(C(=O)C2CCN(c3cccc(-c4ccccc4)c3)CC2)CC1` [Compound 30] was 3800 nM; that for `CC(=O)N1CCN(C(=O)C2CCN(c3cccc(C)c3C)CC2)CC1` [Compound 31] was 4000 nM. The value for `Cc1cccc(N2CCC(C(=O)N3CCOCC3)CC2)c1` [Compound 32] was 4100 nM.

The compound `O=C(C1CCN(c2cccc(-c3ccccc3)c2)CC1)N1CCCCC1` [Compound 33] gave an EC50 of 4100 nM. As for `COc1cccc(N2CCC(C(=O)N3CCSCC3)CC2)c1` [Compound 34], the 50% effective concentration (EC50) was 4370 nM. Compound `Cc1cccc(N2CCC(C(=O)N3C(C)CCCC3C)CC2)c1C` (centres unmarked) [Compound 35] gave an EC50 of 4600 nM. Turning to `Cc1cccc(N2CCC(C(=O)N3CCC(O)C3)CC2)c1C` (centres unmarked) [Compound 36], the EC50 was found to be 5200 nM. The compound `Cc1ccccc1N1CCC(C(=O)N2CCSC2)CC1` [Compound 37] yielded an EC50 of 5400 nM. `Cc1ccccc1N1CCC(C(=O)N2CCCC2)CC1` [Compound 38] showed an EC50 of 7840 nM.
